Test results: publication PMC13081163, “Discovery of a novel Nrf2 activator that modulates mitochondrial function in neurons by regulating DHRS3-Nrf2 interaction after ischemic stroke” (Theranostics, 2026)
Like-named read-outs stand apart in the source and are kept apart here.

Tests used:
[1] = Plasma and brain levels after i.v. dosing (blood-brain barrier); format: in vivo, rat; conditions: for concentration at 0.25 h / concentration at 1 h / concentration at 4 h: intravenous, i.v.
Description: Male SD rats were intravenous injection with Cpd.51, blood and brain tissues were collected 15 min, 1 h, 4 h, 6 h, 8 h and 24 h after drug administration. Samples were measured by a Shimadzu chromatography system (Shimadzu, Kyoto, Japan) coupled with an AB Sciex triple quadrupole 4500 mass spectrometer (SCIEX Triple Quad™ 4500 LC-MS/MS, Applied Biosystems Sciex, Ontario, Canada) using Analyst 1.4.2 software. A HPLC column (ACQUITY UPLC BEH C18, 2.1 × 50 mm, 1.7 μm) were used. Protein precipitation method was used for detection: 50 μL plasma sample or brain homogenate sample were added with 200 μL acetonitrile containing internal standard for precipitation, then vortexed for 3 min. The supernatant was injected into system for analysis after centrifugation.

[2] = biological target: Keap1 BTB domain fragment (48-149) (Homo sapiens, UniProt Q14145); test: SPR binding to truncated Keap1 (48-149)
Description: (§1) The binding affinity of Cpd.51 or Oma to Keap1 proteins were measured using a Biacore T200. The overall experimental procedures were based on previous reports, [28]. Human recombinant Keap1 proteins or truncated form of Keap1 (residues 48-180 and residues 48-149) were captured on a CM5 chip by a standard amine coupling procedure. Binding sensorgrams were recorded by injecting various concentrations of Cpd.51 over the immobilized proteins surface. The dissociation constant was obtained by globally fitting the data (to the 1:1 Langmuir binding model using the Biacore Insight evaluation software (Cytiva, Marlborough, MA, USA). Affinity tests for Cpd.51 and DHRS3 were also performed using the aforementioned method.

[3] = Microsomal metabolic stability, human; format: in vitro ADME; conditions: human liver microsomes
Description: The liver microsomal incubation system comprised human, dog, or rat liver microsomal protein (0.75 mg/mL), nicotinamide adenine dinucleotide phosphate (NADPH) generation system, potassium phosphate buffer (0.1 M, pH 7.4), substrate, and inhibitor. The assay was conducted by first preparing a potassium phosphate buffer. Compounds and liver microsomes were then diluted and pre-incubated at 37 °C before initiating the reaction with NADPH. Aliquots were quenched with acetonitrile containing internal standard at specified time points. After sample processing (shaking and centrifugation), the supernatants were analyzed by LC-MS/MS to determine metabolic stability.

[4] = Pharmacokinetics in male rats (LC-MS/MS); format: in vivo; conditions: SD, rat, plasma
[5] = biological target: T1, Keap1 BTB domain (48-180) (Homo sapiens, UniProt Q14145); test: SPR binding to truncated Keap1 (48-180); conditions: read-out: KD, Keap1 BTB domain fragment
T1 construct: truncated form of Keap1 (residues 48-180 and residues 48-149)
Description: as §1

[6] = biological target: T2, DHRS3-Nrf2 complex (Homo sapiens, UniProt O75911); test: Co-IP of Nrf2-DHRS3 interaction in SH-SY5Y cells; format: cell-based; conditions: 100 nM, physiological and OGD/R conditions
T2 construct: endogenous in cells; host or cells: SH-SY5Y
T2 sequence (O75911 1-302): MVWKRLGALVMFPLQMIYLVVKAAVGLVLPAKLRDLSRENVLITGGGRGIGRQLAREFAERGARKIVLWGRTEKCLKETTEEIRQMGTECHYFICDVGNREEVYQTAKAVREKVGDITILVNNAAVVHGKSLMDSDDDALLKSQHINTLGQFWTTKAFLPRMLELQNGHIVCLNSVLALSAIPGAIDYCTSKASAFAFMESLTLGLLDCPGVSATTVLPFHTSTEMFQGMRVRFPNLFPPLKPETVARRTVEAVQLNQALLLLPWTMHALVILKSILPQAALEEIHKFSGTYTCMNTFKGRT
Description: Co-IP experiments were performed as described. After SH-SY5Y cells were treated, lysates were collected and incubated with antibodies with rotation for 12 h at 4 °C. Then, they were incubated with protein A/G magnetic beads (88804, Thermo Scientific, USA) as specification. Subsequently, the beads were collected and immune complexes were isolated. Finally, protein complexes were incubated for 5 min at 95 °C after dissolving in the electrophoresis sample buffer, and subjected to western blotting.

[7] = biological target: Human recombinant Keap1 proteins (Homo sapiens, UniProt Q14145); test: SPR binding to full-length Keap1; design: purchased Sinobiological ME18DE0203; conditions: read-out: KD, full-length Keap1 protein
Description: as §1

[8] = 28-day long-term toxicity in rats (intragastric); format: in vivo, rat; conditions: 28 days intragastric; Oma 10 mg/kg, Cpd.51 1, 3 and 10 mg/kg
Description: During the long-term toxicity test, rats in each group received daily intragastric administration for 28 consecutive days. Animals in the Sham group were administered a mixture of 99% sesame oil and 1% DMSO at a volume of 0.5 mL per rat. Rats in the remaining groups were intragastrically administered varying doses of the respective therapeutic agents.
During the 28-day long-term toxicity study, rats were euthanized following the completion of continuous intragastric administration. Livers and kidneys from both male and female rats in each group were photographed for macroscopic examination, and serum samples were collected for subsequent kit-based analysis. The liver/kidney index was obtained by dividing the weight of the liver/kidney by the body weight.

Human recombinant Keap1 proteins, sequence (Q14145 whole entry): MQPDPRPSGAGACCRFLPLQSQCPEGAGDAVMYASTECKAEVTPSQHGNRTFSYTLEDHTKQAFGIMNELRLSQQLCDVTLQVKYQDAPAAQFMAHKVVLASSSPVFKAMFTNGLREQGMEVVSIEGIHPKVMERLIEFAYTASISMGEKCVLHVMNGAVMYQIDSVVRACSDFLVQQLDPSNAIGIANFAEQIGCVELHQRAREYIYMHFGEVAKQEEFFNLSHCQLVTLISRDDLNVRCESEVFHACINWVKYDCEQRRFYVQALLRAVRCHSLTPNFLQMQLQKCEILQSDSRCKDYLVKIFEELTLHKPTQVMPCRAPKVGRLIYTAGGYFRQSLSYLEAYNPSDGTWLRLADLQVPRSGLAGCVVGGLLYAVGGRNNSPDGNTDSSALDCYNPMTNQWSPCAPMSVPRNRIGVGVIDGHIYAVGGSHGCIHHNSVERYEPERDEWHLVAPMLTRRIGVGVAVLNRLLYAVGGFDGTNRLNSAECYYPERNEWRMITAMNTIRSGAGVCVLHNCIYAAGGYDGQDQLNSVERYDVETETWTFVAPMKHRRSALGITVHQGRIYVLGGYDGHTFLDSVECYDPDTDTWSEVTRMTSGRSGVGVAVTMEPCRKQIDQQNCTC
Keap1 BTB domain fragment (48-149), sequence (Q14145 48-149): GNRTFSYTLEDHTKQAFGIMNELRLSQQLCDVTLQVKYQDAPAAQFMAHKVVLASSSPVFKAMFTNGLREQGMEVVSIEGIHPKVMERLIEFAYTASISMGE
T1 sequence (Q14145 48-180): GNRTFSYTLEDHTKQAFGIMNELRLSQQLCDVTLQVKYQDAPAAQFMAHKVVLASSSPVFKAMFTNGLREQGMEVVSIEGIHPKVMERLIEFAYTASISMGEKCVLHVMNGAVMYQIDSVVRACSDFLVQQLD

CC1(C)CCC2(C(=O)NO)CCC3(C)C(C(=O)C=C4C5(C)C=C(C#N)C(=O)C(C)(C)C5CCC43C)C2C1 (stereo not shown) [Cpd.51]
distribution to brain tissue ([1]; intravenous administration): relatively effective distribution to brain tissue
concentration at 0.25 h ([1]; male, SD, rat, brain, 5 mg/kg, 0.25 h, read-out: Brain): 86.7 ± 49.3 ng/g
concentration at 1 h ([1]; male, SD, rat, brain, 5 mg/kg, 1 h, read-out: Brain): 29.5 ± 17.5 ng/g
concentration at 4 h ([1]; male, SD, rat, brain, 5 mg/kg, 4 h, read-out: Brain): 10.3 ± 4 ng/g
Kp at 0.25 h ([1]; male, SD, rat, brain, iv, 5 mg/kg, 0.25 h): 0.07 ± 0.04
Kp at 1 h ([1]; male, SD, rat, brain, iv, 5 mg/kg, 1 h): 0.16 ± 0.12
Kp at 4 h ([1]; male, SD, rat, brain, iv, 5 mg/kg, 4 h): 0.28 ± 0.14
concentration at 0.25 h ([1]; male, SD, rat, plasma, 5 mg/kg, 0.25 h, read-out: Plasma): 1290 ± 68 ng/mL
concentration at 1 h ([1]; male, SD, rat, plasma, 5 mg/kg, 1 h, read-out: Plasma): 198 ± 44 ng/mL
concentration at 4 h ([1]; male, SD, rat, plasma, 5 mg/kg, 4 h, read-out: Plasma): 39.5 ± 10.4 ng/mL
Kd [2]: 67.2 µM
Remainig (%, t = 60 min) [3]: 28.9%
CLint scaled ([3]; human, pH 7.4): 34 mL/min/kg
half-life ([3]; human, pH 7.4): 0.612 h
half-life ([4]; 30 mg/kg, i.g. (oral)): 6.36 h
half-life ([4]; iv, 5 mg/kg): 1.49 ± 0.31 h
AUC(0-t) ([4]; po, 30 mg/kg, i.g.): 685 ± 111 ng·h/mL
Cmax ([4]; po, 30 mg/kg, i.g.): 124 ± 37 ng/mL
MRT last ([4]; po, 30 mg/kg, i.g.): 5.17 ± 0.72 h
bioavailability ([4]; po, 30 mg/kg, i.g., read-out: F (oral bioavailability)): 11.5%
Kd [5]: 31.3 µM
DHRS3-Nrf2 complex formation (Co-IP) [6]: substantially reduced DHRS3-Nrf2 complex formation
Kd [7]: 53.9 µM
body weight [8]: neither compound significantly affected body weight
plasma markers of hepatic and renal injury [8]: showed no such effects at any dose tested
